Measurements published in patent US11771692B2, “N-hydroxyethyl didehydroazapodophyllotoxins as GBP1 inhibitors and methods of overcoming treatment resistance in cancer” (The Board of Trustees of the Leland Stanford Junior …, priority 2018, dated 2023).

How the values were obtained:
GBP1 = experiment: cell-based reporter assay, OVCAR-8 stably transfected with GBP-1-luciferase; details: OVCAR-8 GBP-1-luciferase
Description: Exemplary compounds (1)-(17) and previously identified compound SU093 (Andreoli, M., Persico, M.; Kumar, A.; Orteca, N.; Kumar, V.; Pepe, A.; Mahalingam, S.; Alegria, A. E.; Petrella, L.; Sevciunaite, L.; Camperchioli, A.; Mariani, M.; Di Dato, A.; Novellino, E.; Scambia, G., Malhotra, S. V.; Ferlini, C.; Fattorusso, C., Identification of the First Inhibitor of the GBP1:PIM1 Interaction. Implications for the Development of a New Class of Anticancer Agents against Paclitaxel Resistant Cancer Cells. Journal of Medicinal Chemistry 2014, 57 (19), 7916-7932) were tested for GBP1 inhibition using a cell-based reporter assay in ovarian cancer cell line OVCAR-8 stably transfected with GBP-1-luciferase. Tables 1 and 2 below outlines the percentage of GBP1 expression in OVCAR-8 cells for each of the 17 compounds tested.

SCC-90 tumor xenograft = experiment: Head and neck SCC-90 tumor xenograft in nude mice; assay type: in vivo; details: SCC-90, nude mice
Method: An immunodeficient nude mice model was also used to study the in vivo potential of SU093 and SU056 for head and neck cancer. Nude mice (n=3/group) were subcutaneously injected in the right flank with 5×10^6 SCC-90 cells mixed with matrigel and observed regularly until the tumor size reached about 200 mm^3. The treatment regime with drugs including dose, formulation and route of delivery was similar to ovarian cancer study discussed above. Doses of SU093 and SU056 were administered daily until 35 days and mice were sacrificed thereafter. […] At the end of 35 days, calculated tumor volume/mouse was 860.33±21.78 mm^3, 694.67±14.64 mm^3, and 435.00±10.81 mm^3 for control, SU093 and SU056 treatment groups, respectively. This equates to a 20% and 50% reduction in tumor volume for SU093 and SU056 treatment groups, respectively. A decrease in tumor weight of about 21% (P value not significant) and 54% (P<0.002) was also observed for the SU093 and SU56 treatment groups, respectively.

ID-8 tumor xenograft = experiment: Ovarian ID-8 tumor xenograft in C57BL6 mice; assay type: in vivo; details: ID-8, 20 mg/kg IP daily
Description: An immunocompetent syngeneic mouse model was used to evaluate in vivo antitumor effect of SU093 and SU056 (also referred to herein as Compound (I)) for ovarian cancer. C57BL6 female mice (n=5/group) were subcutaneously injected in the right flank with 5×10^6 ID-8 cells mixed with matrigel. From the day following xenograft implantation, mice were monitored regularly for tumor growth and once the tumors reached approximately 100 mm^3, the mice were randomly divided into three groups and respective treatments were given.
Group I (vehicle control): 100 μl of 10% PEG300 (w/v) in saline;
Group II: mice treated with SU093 (20 mg/kg); and
Group III: mice treated with SU056 (20 mg/kg).
Doses were administered intraperitoneally (IP) for 7 days/week for 42 days and the mice were sacrificed on day 43. Tumor sizes were measured twice weekly using digital caliper and tumor volume was calculated by the formula: 0.5236 L1 (L2)^2, where L1 is long diameter, and L2 is short diameter.

With O=C1OCC2=C1C(c1cccc(F)c1)c1cc3c(cc1N2CCO)OCO3 (centres unmarked) [SU056] the “% GBP1 expression OVCAR-8 @5 nM” value (GBP1; 5 nM) was 54.16%, the “% GBP1 expression OVCAR-8 @10 nM” value (GBP1; 10 nM) was 43.36% and the tumor volume/mouse (SCC-90 tumor xenograft; 20 mg/kg IP daily, end of 35 days) was 435.00±10.81 mm^3. The “decrease in tumor weight” value (SCC-90 tumor xenograft; 35 days, vs control) was about 54%, the “reduction in tumor volume” value (SCC-90 tumor xenograft; 35 days, vs control) was 50% and the “reduction in tumor volume” value (ID-8 tumor xenograft; 42 days, vs control) was 49.55%. The tumor weight decreased (ID-8 tumor xenograft; 42 days, vs control) was 53.44% and the tumor volume/mouse (ID-8 tumor xenograft; end of 6 weeks) was 257.39±21.6 mm^3.
